Data on 16 compounds can be found in ChEMBL document CHEMBL4680299 (Bioorg Med Chem Lett, 2021).

The structures appear in SMILES notation.

Data set [1] deals with Metabotropic glutamate receptor 1 (Homo sapiens, UniProt Q13255). Description: Positive allosteric modulation of human mGluR1 in presence of EC20 concentration of glutamate by calcium mobilization assay. Format: functional. A general note: Calcium assays in cells follow changes in intracellular calcium, usually with a dye or a luminescent sensor.
Data set [2] concerns the target Metabotropic glutamate receptor 4 (Homo sapiens, UniProt Q14833). Description: Positive allosteric modulation of human mGluR4 by calcium mobilization assay. Format: functional.
Data set [3] deals with Metabotropic glutamate receptor 7 (Homo sapiens, UniProt Q14831). In words: Positive allosteric modulation of human mGluR7 in presence of EC20 concentration of L-AP4 by calcium mobilization assay. It counts as functional.
The nature of data set [4]: Protein binding in rat plasma assessed as fraction unbound. It counts as ADME, cell-free.
The target in data set [5] is Metabotropic glutamate receptor 6 (Homo sapiens, UniProt O15303). Description: Positive allosteric modulation of mGluR6 (unknown origin) by calcium mobilization assay. Format: functional.
The target in data set [6] is Metabotropic glutamate receptor 3 (Homo sapiens, UniProt Q14832). In words: Positive allosteric modulation of mGluR3 (unknown origin) by calcium mobilization assay. Format: functional.
The target in data set [7] is Metabotropic glutamate receptor 8 (Homo sapiens, UniProt O00222). Description: Positive allosteric modulation of mGluR8 (unknown origin) by calcium mobilization assay. Format: functional.
In data set [8] the target is Metabotropic glutamate receptor 5 (Homo sapiens, UniProt P41594). In words: Positive allosteric modulation of mGluR5 (unknown origin) by calcium mobilization assay. Format: functional.
In data set [9] the target is Metabotropic glutamate receptor 2 (Homo sapiens, UniProt Q14416). In words: Positive allosteric modulation of mGluR2 (unknown origin) by calcium mobilization assay. Format: functional.

Metabotropic glutamate receptor 1, sequence (Q13255 whole entry): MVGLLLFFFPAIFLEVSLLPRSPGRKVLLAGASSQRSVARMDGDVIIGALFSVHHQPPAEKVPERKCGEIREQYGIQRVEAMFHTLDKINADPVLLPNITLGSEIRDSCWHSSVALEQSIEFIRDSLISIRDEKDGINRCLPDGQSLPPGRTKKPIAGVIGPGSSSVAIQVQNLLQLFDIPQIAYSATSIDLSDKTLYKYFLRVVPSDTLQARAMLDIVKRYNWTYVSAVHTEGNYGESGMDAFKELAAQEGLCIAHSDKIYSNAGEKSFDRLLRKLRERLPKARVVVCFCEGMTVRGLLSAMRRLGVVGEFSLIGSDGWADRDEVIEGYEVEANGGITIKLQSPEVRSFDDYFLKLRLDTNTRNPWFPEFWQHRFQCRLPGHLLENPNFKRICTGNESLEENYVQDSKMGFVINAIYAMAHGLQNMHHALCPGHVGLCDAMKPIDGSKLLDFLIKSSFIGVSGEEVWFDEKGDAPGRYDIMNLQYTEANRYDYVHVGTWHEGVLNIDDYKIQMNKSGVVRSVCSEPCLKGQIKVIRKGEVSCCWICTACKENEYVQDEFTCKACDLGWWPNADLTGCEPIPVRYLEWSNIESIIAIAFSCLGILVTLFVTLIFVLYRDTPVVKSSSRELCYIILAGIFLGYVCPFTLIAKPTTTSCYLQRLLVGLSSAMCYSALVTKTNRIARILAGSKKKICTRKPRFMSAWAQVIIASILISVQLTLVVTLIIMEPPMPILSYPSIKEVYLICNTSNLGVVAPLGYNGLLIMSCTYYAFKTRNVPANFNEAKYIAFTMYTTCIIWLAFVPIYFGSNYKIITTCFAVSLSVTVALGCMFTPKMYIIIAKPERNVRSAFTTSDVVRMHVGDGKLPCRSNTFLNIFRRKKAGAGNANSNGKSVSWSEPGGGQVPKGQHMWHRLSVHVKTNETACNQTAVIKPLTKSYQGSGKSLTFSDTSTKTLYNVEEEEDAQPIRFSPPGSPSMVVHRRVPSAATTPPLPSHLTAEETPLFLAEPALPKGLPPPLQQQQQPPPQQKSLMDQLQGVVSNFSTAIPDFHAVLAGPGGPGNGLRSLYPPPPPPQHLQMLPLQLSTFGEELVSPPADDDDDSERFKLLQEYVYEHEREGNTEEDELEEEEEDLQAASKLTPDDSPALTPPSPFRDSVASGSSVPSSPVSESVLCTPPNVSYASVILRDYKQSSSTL
Metabotropic glutamate receptor 7, sequence (Q14831 whole entry): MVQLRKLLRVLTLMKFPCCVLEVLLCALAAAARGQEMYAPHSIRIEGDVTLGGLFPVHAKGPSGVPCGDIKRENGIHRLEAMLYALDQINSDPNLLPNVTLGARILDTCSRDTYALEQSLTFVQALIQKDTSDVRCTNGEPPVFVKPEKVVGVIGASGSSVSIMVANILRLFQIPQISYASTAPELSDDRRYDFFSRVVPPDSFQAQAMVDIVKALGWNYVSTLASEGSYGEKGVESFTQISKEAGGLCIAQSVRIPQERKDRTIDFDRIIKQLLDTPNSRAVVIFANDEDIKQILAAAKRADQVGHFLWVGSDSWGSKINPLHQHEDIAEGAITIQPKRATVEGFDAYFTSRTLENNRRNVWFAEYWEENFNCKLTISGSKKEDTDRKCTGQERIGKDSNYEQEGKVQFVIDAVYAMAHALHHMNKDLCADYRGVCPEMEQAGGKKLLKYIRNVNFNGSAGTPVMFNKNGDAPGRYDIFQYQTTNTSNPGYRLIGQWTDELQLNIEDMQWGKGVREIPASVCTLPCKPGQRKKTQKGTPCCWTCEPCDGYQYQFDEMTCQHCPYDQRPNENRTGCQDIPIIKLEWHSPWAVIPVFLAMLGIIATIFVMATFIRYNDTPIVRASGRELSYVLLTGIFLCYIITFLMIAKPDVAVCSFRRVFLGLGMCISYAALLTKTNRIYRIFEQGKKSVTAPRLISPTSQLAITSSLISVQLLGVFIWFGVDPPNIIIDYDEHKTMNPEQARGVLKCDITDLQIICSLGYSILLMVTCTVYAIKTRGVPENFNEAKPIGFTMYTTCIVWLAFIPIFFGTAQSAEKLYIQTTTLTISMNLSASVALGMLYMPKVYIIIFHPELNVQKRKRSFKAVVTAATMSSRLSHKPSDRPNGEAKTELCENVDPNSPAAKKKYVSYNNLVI
Metabotropic glutamate receptor 4, sequence (Q14833 whole entry): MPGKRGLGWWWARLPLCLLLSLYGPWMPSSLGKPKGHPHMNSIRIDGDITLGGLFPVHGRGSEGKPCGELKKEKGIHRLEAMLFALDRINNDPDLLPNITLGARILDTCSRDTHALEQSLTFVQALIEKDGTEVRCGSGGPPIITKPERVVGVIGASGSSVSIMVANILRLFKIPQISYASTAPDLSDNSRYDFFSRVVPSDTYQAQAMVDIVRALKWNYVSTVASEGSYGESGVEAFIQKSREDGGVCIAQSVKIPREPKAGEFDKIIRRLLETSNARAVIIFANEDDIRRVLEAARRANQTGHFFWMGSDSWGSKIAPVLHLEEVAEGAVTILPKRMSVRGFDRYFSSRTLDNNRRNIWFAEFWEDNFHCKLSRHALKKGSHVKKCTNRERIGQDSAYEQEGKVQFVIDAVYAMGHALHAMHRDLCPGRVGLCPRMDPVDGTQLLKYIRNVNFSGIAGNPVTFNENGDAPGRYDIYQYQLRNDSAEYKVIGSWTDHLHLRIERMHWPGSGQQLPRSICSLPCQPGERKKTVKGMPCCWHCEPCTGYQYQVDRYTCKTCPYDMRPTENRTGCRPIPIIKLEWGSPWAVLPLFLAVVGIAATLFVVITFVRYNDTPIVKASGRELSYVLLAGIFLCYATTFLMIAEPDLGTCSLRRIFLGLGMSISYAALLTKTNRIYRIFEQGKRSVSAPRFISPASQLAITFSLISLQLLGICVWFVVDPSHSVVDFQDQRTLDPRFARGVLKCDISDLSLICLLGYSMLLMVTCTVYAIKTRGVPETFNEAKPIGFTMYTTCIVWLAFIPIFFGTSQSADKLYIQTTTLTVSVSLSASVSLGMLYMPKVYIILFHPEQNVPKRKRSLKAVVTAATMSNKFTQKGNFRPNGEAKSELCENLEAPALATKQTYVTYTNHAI
Metabotropic glutamate receptor 8, sequence (O00222 whole entry): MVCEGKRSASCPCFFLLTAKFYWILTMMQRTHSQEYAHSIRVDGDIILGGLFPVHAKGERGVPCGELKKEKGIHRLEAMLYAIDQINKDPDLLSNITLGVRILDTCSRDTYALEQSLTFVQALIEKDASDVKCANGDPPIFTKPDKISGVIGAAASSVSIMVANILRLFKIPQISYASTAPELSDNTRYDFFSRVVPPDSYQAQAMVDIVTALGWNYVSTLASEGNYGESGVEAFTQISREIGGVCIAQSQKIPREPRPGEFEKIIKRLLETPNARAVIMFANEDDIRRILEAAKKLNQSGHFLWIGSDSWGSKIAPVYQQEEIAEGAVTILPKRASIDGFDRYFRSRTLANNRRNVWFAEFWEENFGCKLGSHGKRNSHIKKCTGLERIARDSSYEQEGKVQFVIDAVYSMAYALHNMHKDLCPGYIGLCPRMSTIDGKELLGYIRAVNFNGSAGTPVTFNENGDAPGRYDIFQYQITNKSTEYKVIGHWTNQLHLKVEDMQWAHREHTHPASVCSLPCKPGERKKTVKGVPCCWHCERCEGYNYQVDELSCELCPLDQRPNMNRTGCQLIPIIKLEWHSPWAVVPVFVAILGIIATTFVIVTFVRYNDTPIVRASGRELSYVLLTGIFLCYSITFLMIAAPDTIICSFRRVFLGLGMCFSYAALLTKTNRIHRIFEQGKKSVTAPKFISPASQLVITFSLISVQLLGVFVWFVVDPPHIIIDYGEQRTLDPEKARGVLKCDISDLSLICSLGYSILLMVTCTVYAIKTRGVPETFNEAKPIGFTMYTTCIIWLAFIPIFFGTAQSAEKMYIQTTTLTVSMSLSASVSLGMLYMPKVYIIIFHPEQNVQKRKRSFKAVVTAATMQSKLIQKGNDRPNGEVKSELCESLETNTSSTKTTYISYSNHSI
Metabotropic glutamate receptor 3, sequence (Q14832 whole entry): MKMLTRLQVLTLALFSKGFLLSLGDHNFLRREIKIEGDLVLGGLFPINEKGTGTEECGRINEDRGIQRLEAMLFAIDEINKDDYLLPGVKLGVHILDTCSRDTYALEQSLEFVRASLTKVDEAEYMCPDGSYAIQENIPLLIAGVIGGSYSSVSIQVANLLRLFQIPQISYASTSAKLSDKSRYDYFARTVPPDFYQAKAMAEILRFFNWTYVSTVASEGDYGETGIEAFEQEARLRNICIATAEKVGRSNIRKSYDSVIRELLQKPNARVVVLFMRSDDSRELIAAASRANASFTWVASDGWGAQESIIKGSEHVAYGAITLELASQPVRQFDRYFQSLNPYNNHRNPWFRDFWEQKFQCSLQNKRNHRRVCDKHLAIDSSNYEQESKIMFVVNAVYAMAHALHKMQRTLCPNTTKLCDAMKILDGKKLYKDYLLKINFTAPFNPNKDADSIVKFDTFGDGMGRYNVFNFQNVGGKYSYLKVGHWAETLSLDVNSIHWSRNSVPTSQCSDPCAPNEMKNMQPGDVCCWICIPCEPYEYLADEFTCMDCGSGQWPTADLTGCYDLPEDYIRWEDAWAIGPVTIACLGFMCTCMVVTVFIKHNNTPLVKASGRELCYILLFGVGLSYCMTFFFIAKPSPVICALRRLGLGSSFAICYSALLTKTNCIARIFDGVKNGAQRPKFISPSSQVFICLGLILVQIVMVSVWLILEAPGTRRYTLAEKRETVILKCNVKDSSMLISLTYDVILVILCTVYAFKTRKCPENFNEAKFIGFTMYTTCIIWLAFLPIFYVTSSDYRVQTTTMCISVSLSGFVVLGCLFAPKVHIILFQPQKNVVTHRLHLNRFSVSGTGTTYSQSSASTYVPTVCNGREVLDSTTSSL

Consider `Cc1ccoc1C(=O)Nc1c(F)cc(N2C(=O)c3ccc(F)cc3C2=O)c(F)c1F`, for which the EC50 (commonly the concentration at which the effect is half-maximal) in [1] was above 10000 nM.

As to `Cc1ccoc1C(=O)Nc1c(F)cc(N2C(=O)C3=C(CCCC3)C2=O)c(F)c1F`, in data set [1], the EC50 was above 10000 nM.

`Cc1ccoc1C(=O)Nc1cc(F)c(N2C(=O)c3ccccc3C2=O)c(F)c1`: the EC50 in data set [1] was above 10000 nM.

As to `Cc1cc(N2C(=O)C3=C(CCCC3)C2=O)c(F)cc1NC(=O)c1occc1C`, the EC50 is 266 nM in data set [2], 372 nM in data set [3] and 58 nM in data set [1]. Moreover, the free fraction (fraction unbound) (usually the share of the substance not bound to proteins or other matrix) in data set [4] is 0.012.

Consider `Cc1ccoc1C(=O)Nc1c(F)cc(N2C(=O)c3ccccc3C2=O)cc1F`, for which the half-maximal effective concentration (EC50) in data set [1] was above 10000 nM.

Consider `O=C(Nc1ccc(N2C(=O)C3C(C2=O)[C@H]2C=C[C@@H]3C2)cc1)c1ccccn1` (some centres not stated), for which the EC50 in data set [1] was above 30000 nM.

Turning to `Cc1ccoc1C(=O)Nc1c(F)cc(N2C(=O)c3ccc(Cl)cc3C2=O)c(F)c1F`, the EC50 in data set [1] was above 10000 nM.

Regarding `Cc1nc(C(=O)Nc2cc(F)c(N3C(=O)C4=C(CCCC4)C3=O)cc2C)cs1`, the EC50 in data set [2] was 175 nM; in data set [3], 1340 nM; in data set [1] it was above 10000 nM.

Regarding `Cc1ccoc1C(=O)Nc1cc(F)c(N2C(=O)c3cccc(Cl)c3C2=O)c(F)c1F`, the fraction unbound in data set [4] was 0.012.

`Cc1cc(NC(=O)c2occc2C)c(F)cc1N1C(=O)c2ccccc2C1=O`: the unbound share (fraction unbound) in [4] came out at 0.012.

Take `Cc1ccoc1C(=O)Nc1ccc(N2C(=O)c3ccccc3C2=O)c(C#N)c1`: in data set [1], the EC50 is above 10000 nM.

Take `Cc1ccc2c(c1)C(=O)N(c1ccc(NC(=O)c3occc3C)c(F)c1)C2=O`: the EC50 in [2] is above 30000 nM; in data set [5] it was above 30000 nM; in [3] it was above 30000 nM; in data set [6] it was above 30000 nM; in data set [1] it was 22 nM; in [7] it was above 30000 nM. Moreover, the EC50 in data set [8] and in [9] was above 30000 nM throughout.

Regarding `Cc1cc(N2C(=O)C3=C(CCCC3)C2=O)c(F)cc1NC(=O)c1ccc(Cl)o1`, the EC50 was 229 nM in data set [2], 400 nM in data set [3] and above 10000 nM in data set [1].

Take `Cc1ccoc1C(=O)Nc1c(F)cc(N2C(=O)c3cccc(F)c3C2=O)c(F)c1F`: in data set [1], the EC50 is above 10000 nM.

Turning to `Cc1ccoc1C(=O)Nc1c(F)cc(N2C(=O)[C@H]3CC=CC[C@H]3C2=O)c(F)c1F`, the EC50 in data set [1] is above 10000 nM.

For the compound `Cc1cc(N2C(=O)C3=C(CCCC3)C2=O)c(F)cc1NC(=O)c1ccco1`, the figures for the EC50 in data set [2], in data set [3] and in data set [1] were 89 nM, 377 nM and above 10000 nM, respectively.
